In patent publication US6458978B1, “Fluorous phosphines and process for their preparation” (Atofina Vlissingen B.V., priority 1998, dated 2002):
Marks after values point to notes of the source that are not given here.

Tests used:
[1] = Solubility of dppe and dppe derivatives G{m,x} in perfluorinated and non-fluorinated solvents; type: physicochemical; conditions: for solubility at room temperature, FC-72: FC-72: mixture of perfluorinated hexanes
[2] = Leaching of rhodium and phosphorus into the organic product phase and partitioning of rhodium species (ICP-AAS); conditions: fluorous biphasic product mixture from hydrogenation of 1-octene
From the text: Rhodium leaching into the organic phase (as determined by ICP-AAS) was low. On average 0.12% of Rh per cycle was lost corresponding to a rhodium concentration of 3 ppm (by weight) in the product phase. Over 9 cycles only 1% of rhodium was lost despite of the phase separation method used. Leaching was higher for less fluorous pre-catalyst H{1,6}: 0.3% (6 ppm) of rhodium was present in the organic phase after phase separation.
The amount of leached rhodium allows to calculate the average partition coefficients (P) of the rhodium species present during phase separation (Table 6). […] Chem. Soc. 1999, 121, 2696-2704.). […] Chem. Int. Ed. Engl. 1997, 36, 1610-1612).
The retention of free uncoordinated fluorous phosphine can be used for recycling the intact catalyst system.
(§1) Only catalysts prepared through method 1 were used. Catalytic reactions were carried out under single phase fluorous conditions in c-CF3C6F11 (2 mL) at 80° C. After >90% conversion (monitored by the H2 uptake) the homogeneous reaction mixture was cooled to 0° C. and the upper organic layer was siphoned of. In between cycles the fluorous layer was kept under H2 atmosphere. By warming up to 80° C. and addition of a fresh portion of 1-octene (12.74 mmol) a new cycle was started. The organic phases resulting from the first cycle were analyzed by GC and ICP-AAS.

[3] = Rhodium catalyzed hydrogenation of 1-octene under single phase fluorous conditions with catalyst recycling; conditions: for TOF50% / TON (cumulative) / conv.: p(H2) = 1 bar
Protocol: (Table 5). In this respect compounds H{1,6} and H{1,8} are true fluorous equivalents of the classical Wilkinson's hydrogenation catalyst (PPh3)3RhCl. The hydrogenation products were readily isolated from the catalyst layer by cooling of the reaction mixture to 0° C. followed by phase separation of the resulting biphasic system. In this way hydrogenation of 1-octene afforded n-octane in >95% yield (GC, GC-MS). Less than 4.3% internal olefins resulting from isomerization were present. In case of H{1,8} it was possible to recycle the fluorous catalyst layer multiple times allowing high turnover numbers and high conversions per cycle (Table 5 and FIG. 5).
20. Rhodium Catalyzed Hydrogenation Reactions
The catalytic experiments were carried out in a 30 mL Schienk flask, under dihydrogen atmosphere (1 bar). The catalyst was either dissolved in a hydrogen saturated toluene or perfluoro solvent and the mixture was stirred with a magnetic stirring bar (900 rpm). The olefinic substrate was added after initial dihydrogen uptake had ceased. The dihydrogen uptake was monitored using two mineral oil filled gas burettes. During the hydrogenation reactions one burette was opened to the reaction vessel while the other was recharged with dihydrogen.
as §1

[4] = Hydrogenation of 1-octene under single phase conditions in α,α,α-trifluorotoluene; conditions: [Rh] 4.0 mM, [1-octene] 1.46 M; T = 80° C., p(H2) = 1 bar, α,α,α-trifluorotoluene
Protocol: To be able to directly compare the activities of fluorous derivatives H{1,6} and H{1,8} with non-fluorous [P(C6H4-4-SiMe3)3]3RhCl (H{0}) and the conventional Wilkinson catalyst (PPh3)3RhCl, homogeneous hydrogenation of 1-octene were carried out under single phase conditions in the hybrid solvent α,α,α-trifluorotoluene at atmospheric H2 pressures. Highest rates of hydrogen uptake (14.2 mol.L^−1.h^−1) were measured for 1c at relatively high rhodium and olefine concentrations (entry 2, Table 7). Under these conditions a zero-order dependence in [1-octene] was found up to ca 80% conversion resulting in a linear conversion versus time plot. In all other experiments ([Rh]=4.0-8.0 mM, [1-octene]0=1.46 M) rates of hydrogen uptake were lower (<11 mol.L^−1.h^−1) and conversion versus time plots corresponded to a rate law -d[1-octene]/dt=kobs.[1-octene] for >98% conversion allowing to evaluate catalyst activity in terms of the observed first order rate constant kobs. Since for these experiments the rates of dihydrogen uptake were well below the maximum value obtained in entry 2, diffusion limitation of H2 can be excluded. In addition to kobs, turn over frequencies (TOF in mol.mol^−1.h^−1) were derived from the tangent of a 4^thorder polynomal fit to conversion versus time plots at 25% conversion and serve as a measure of catalyst activity independent of any assumed kinetic relationship with substrate.
Catalytic reactions were carried out under single phase conditions in CF3C6H5 at 80° C. under 1 bar of hydrogen pressure. After >90% conversion (monitored by the H2 uptake) volatiles were distilled off and analyzed by GC. Activities (TOF) were determined for 25% conversion.

[5] = c-C6F11CF3/toluene at 27° C.; cited from earlier work
[6] = cycle 1, c-CF3C6F11, 80° C., [1-octene]/[Rh] = 559, [Rh]0 = 0.0060M
[7] = cycle 1, c-CF3C6F11, 80° C., [1-octene]/[Rh] = 365
[8] = cycle 2, c-CF3C6F11, 80° C., [1-octene]/[Rh] = 365
[9] = cycle 3, c-CF3C6F11, 80° C., [1-octene]/[Rh] = 365
[10] = cycle 4, c-CF3C6F11, 80° C., [1-octene]/[Rh] = 365
[11] = cycle 5, c-CF3C6F11, 80° C., [1-octene]/[Rh] = 365
[12] = cycle 6, c-CF3C6F11, 80° C., [1-octene]/[Rh] = 365
[13] = cycle 7, c-CF3C6F11, 80° C., [1-octene]/[Rh] = 365
[14] = cycle 8, c-CF3C6F11, 80° C., [1-octene]/[Rh] = 365
[15] = cycle 9, fresh c-CF3C6F11 added as compensation for losses of fluorous solvent, 80° C.

C[Si](CCC(F)(F)C(F)(F)C(F)(F)C(F)(F)C(F)(F)C(F)(F)F)(CCC(F)(F)C(F)(F)C(F)(F)C(F)(F)C(F)(F)C(F)(F)F)c1ccc(P(CCP(c2ccc([Si](C)(CCC(F)(F)C(F)(F)C(F)(F)C(F)(F)C(F)(F)C(F)(F)F)CCC(F)(F)C(F)(F)C(F)(F)C(F)(F)C(F)(F)C(F)(F)F)cc2)c2ccc([Si](C)(CCC(F)(F)C(F)(F)C(F)(F)C(F)(F)C(F)(F)C(F)(F)F)CCC(F)(F)C(F)(F)C(F)(F)C(F)(F)C(F)(F)C(F)(F)F)cc2)c2ccc([Si](C)(CCC(F)(F)C(F)(F)C(F)(F)C(F)(F)C(F)(F)C(F)(F)F)CCC(F)(F)C(F)(F)C(F)(F)C(F)(F)C(F)(F)C(F)(F)F)cc2)cc1 [G{2,6}]
solubility at room temperature, THF [1]: + (+: >0.1 g/ml)
solubility at room temperature, FC-72 [1]: + (+: >0.1 g/ml)

FC(F)(F)C(F)(F)C(F)(F)C(F)(F)C(F)(F)C(F)(F)CC[Si](CCC(F)(F)C(F)(F)C(F)(F)C(F)(F)C(F)(F)C(F)(F)F)(CCC(F)(F)C(F)(F)C(F)(F)C(F)(F)C(F)(F)C(F)(F)F)c1ccc(P(CCP(c2ccc([Si](CCC(F)(F)C(F)(F)C(F)(F)C(F)(F)C(F)(F)C(F)(F)F)(CCC(F)(F)C(F)(F)C(F)(F)C(F)(F)C(F)(F)C(F)(F)F)CCC(F)(F)C(F)(F)C(F)(F)C(F)(F)C(F)(F)C(F)(F)F)cc2)c2ccc([Si](CCC(F)(F)C(F)(F)C(F)(F)C(F)(F)C(F)(F)C(F)(F)F)(CCC(F)(F)C(F)(F)C(F)(F)C(F)(F)C(F)(F)C(F)(F)F)CCC(F)(F)C(F)(F)C(F)(F)C(F)(F)C(F)(F)C(F)(F)F)cc2)c2ccc([Si](CCC(F)(F)C(F)(F)C(F)(F)C(F)(F)C(F)(F)C(F)(F)F)(CCC(F)(F)C(F)(F)C(F)(F)C(F)(F)C(F)(F)C(F)(F)F)CCC(F)(F)C(F)(F)C(F)(F)C(F)(F)C(F)(F)C(F)(F)F)cc2)cc1 [G{3,6}]
solubility at room temperature, THF [1]: − (−: <0.01 g/ml)
solubility at room temperature, toluene [1]: − (−: <0.01 g/ml)
solubility at room temperature, FC-72 [1]: + (+: >0.1 g/ml)

C[Si](C)(CCC(F)(F)C(F)(F)C(F)(F)C(F)(F)C(F)(F)C(F)(F)F)c1ccc([PH](c2ccc([Si](C)(C)CCC(F)(F)C(F)(F)C(F)(F)C(F)(F)C(F)(F)C(F)(F)F)cc2)(c2ccc([Si](C)(C)CCC(F)(F)C(F)(F)C(F)(F)C(F)(F)C(F)(F)C(F)(F)F)cc2)[Rh]([Cl])([PH](c2ccc([Si](C)(C)CCC(F)(F)C(F)(F)C(F)(F)C(F)(F)C(F)(F)C(F)(F)F)cc2)(c2ccc([Si](C)(C)CCC(F)(F)C(F)(F)C(F)(F)C(F)(F)C(F)(F)C(F)(F)F)cc2)c2ccc([Si](C)(C)CCC(F)(F)C(F)(F)C(F)(F)C(F)(F)C(F)(F)C(F)(F)F)cc2)[PH](c2ccc([Si](C)(C)CCC(F)(F)C(F)(F)C(F)(F)C(F)(F)C(F)(F)C(F)(F)F)cc2)(c2ccc([Si](C)(C)CCC(F)(F)C(F)(F)C(F)(F)C(F)(F)C(F)(F)C(F)(F)F)cc2)c2ccc([Si](C)(C)CCC(F)(F)C(F)(F)C(F)(F)C(F)(F)C(F)(F)C(F)(F)F)cc2)cc1 [H{1,6}, (D{1,6})3RhCl]
Average partitioning coefficient P of rhodium species ([2]; T = 0° C.): 293^b
Average partitioning coefficient P of rhodium species ([2]; T = 25° C.): 76^b
TOF50% [3, 6]: 298 h⁻¹
TON (cumulative) [3, 6]: 531
conv. ([3]; cycle 1, c-CF3C6F11, 80° C., containing 10 mol % of D{1,6}, [1-octene]/[Rh] = 559, [Rh]0 = 0.0060M): 95%
TOF(25%), turn over frequency at 25% conversion [4]: 1110 h⁻¹
TON (mole of olefin/mole of Rh) [4]: 363
conversion [4]: 99%
kobs (first order rate constant) [4]: 4.2(1) h^−1

C[Si](C)(CCC(F)(F)C(F)(F)C(F)(F)C(F)(F)C(F)(F)C(F)(F)C(F)(F)C(F)(F)F)c1ccc(P(c2ccc([Si](C)(C)CCC(F)(F)C(F)(F)C(F)(F)C(F)(F)C(F)(F)C(F)(F)C(F)(F)C(F)(F)F)cc2)c2ccc([Si](C)(C)CCC(F)(F)C(F)(F)C(F)(F)C(F)(F)C(F)(F)C(F)(F)C(F)(F)C(F)(F)F)cc2)cc1.C[Si](C)(CCC(F)(F)C(F)(F)C(F)(F)C(F)(F)C(F)(F)C(F)(F)C(F)(F)C(F)(F)F)c1ccc(P(c2ccc([Si](C)(C)CCC(F)(F)C(F)(F)C(F)(F)C(F)(F)C(F)(F)C(F)(F)C(F)(F)C(F)(F)F)cc2)c2ccc([Si](C)(C)CCC(F)(F)C(F)(F)C(F)(F)C(F)(F)C(F)(F)C(F)(F)C(F)(F)C(F)(F)F)cc2)cc1.C[Si](C)(CCC(F)(F)C(F)(F)C(F)(F)C(F)(F)C(F)(F)C(F)(F)C(F)(F)C(F)(F)F)c1ccc(P(c2ccc([Si](C)(C)CCC(F)(F)C(F)(F)C(F)(F)C(F)(F)C(F)(F)C(F)(F)C(F)(F)C(F)(F)F)cc2)c2ccc([Si](C)(C)CCC(F)(F)C(F)(F)C(F)(F)C(F)(F)C(F)(F)C(F)(F)C(F)(F)C(F)(F)F)cc2)cc1.[Cl][Rh] [H{1,8}, (D{1,8})3RhCl]
Average partitioning coefficient P of rhodium species ([2]; T = 0° C.): 1052^c
Drop of catalyst activity ([3]; 9th cycle, amount of c-C6F11CF3 restored to its initial volume): 19%
TOF50% [3, 7]: 177 h⁻¹
TON (cumulative) [3, 7]: 337
conv. ([3]; cycle 1, c-CF3C6F11, 80° C., [1-octene]/[Rh] = 365, [Rh] = 0.0087M in the initial cycle): 92%
TOF50% [3, 8]: 212 h⁻¹
TON (cumulative) [3, 8]: 688
conv. [3, 8]: 96%
TOF50% [3, 9]: 261 h⁻¹
TON (cumulative) [3, 9]: 1048
conv. [3, 9]: 99%
TOF50% [3, 10]: 277 h⁻¹
TON (cumulative) [3, 10]: 1383
conv. [3, 10]: 92%
TOF50% [3, 11]: 304 h⁻¹
TON (cumulative) [3, 11]: 1747
conv. [3, 11]: 99.8%
TOF50% [3, 12]: 397 h⁻¹
TON (cumulative) [3, 12]: 2100
conv. [3, 12]: 96.8%
TOF50% [3, 13]: 507 h⁻¹
TON (cumulative) [3, 13]: 2444
conv. [3, 13]: 94%
TOF50% [3, 14]: 617 h⁻¹
TON (cumulative) [3, 14]: 2808
conv. [3, 14]: 99.7%
TOF50% [3, 15]: 142 h⁻¹
TON (cumulative) [3, 15]: 3117
conv. [3, 15]: 85%
TOF(25%), turn over frequency at 25% conversion [4]: 870 h⁻¹
TON (mole of olefin/mole of Rh) [4]: 355
conversion [4]: 99%
kobs (first order rate constant) [4]: 3.2(1) h^−1

FC(F)(F)C(F)(F)C(F)(F)C(F)(F)C(F)(F)C(F)(F)CCP(CCC(F)(F)C(F)(F)C(F)(F)C(F)(F)C(F)(F)C(F)(F)F)CCC(F)(F)C(F)(F)C(F)(F)C(F)(F)C(F)(F)C(F)(F)F [P [(CH2)2(CF2)nCF3)3]3 (n=5)]
Partition coefficient P [5]: 82

FC(F)(F)C(F)(F)C(F)(F)C(F)(F)C(F)(F)C(F)(F)CCP(CCC(F)(F)C(F)(F)C(F)(F)C(F)(F)C(F)(F)C(F)(F)F)CCC(F)(F)C(F)(F)C(F)(F)C(F)(F)C(F)(F)C(F)(F)F [P [(CH2)2(CF2)nCF3)3]3 (n=7)]
Partition coefficient P [5]: 332
